Series [1] deals with Plasmodium falciparum malaria. The settings on record: India; number among the 89 subjects who completed the study; cited from earlier work.
The subject of series [2] is uncomplicated falciparum malaria. The settings on record: area of multi-drug resistance, Thai-Burmese border; cited from earlier work.
For series [3] the following is noted: fatty meal (approximately 30 g of fat) versus low-fat meal; with artesunate 8 mg/kg and mefloquine 15 mg/kg over 12h; cited from earlier work.
For series [4] the following is noted: in vivo. On the procedure: Treatment safety was assessed clinically as well as by measuring hematological indices and serum creatinine and hepatic transaminase concentrations. The sample size was computed assuming equal efficacy of the two treatments, and 606 patients (303 in each treatment arm) were enrolled over two consecutive malaria transmission seasons.

As to `CCN(CC)CCCC(C)Nc1ccnc2cc(Cl)ccc12` (stereo not shown) [chloroquine], the treatment failures in series [1] is reported as 46.

On to `OC(c1cc(C(F)(F)F)nc2c(C(F)(F)F)cccc12)C1CCCCN1` (stereo not shown) [MQ, mefloquine], for which the “Overall failure rates by day 28” value in series [2] is on record as 24%. Also, the bioavailability of mefloquine result in series [3] is “does not appear to increase the bioavailability”.

Consider artemether-lumefantrine, for which, in series [4], the “mild and transient elevation of transaminases” value is on record as 0/72.

The record behind these values is patent publication EP1940519B1, “Pharmaceutical composition comprising artesunate, sulfamethoxypyrazine and pyrimethamine for use in the treatment of malaria within one day” (Dafra Pharma N.V., priority 2005, dated 2007).
